# According to patent publication US20160318866A1, “SUBSTITUTED BIPIPERIDINYL DERIVATIVES” (Bayer Pharma Aktiengesellschaft, priority 2013, published 2016):
# Key:
# human α2C receptor = target: T1, human α2C receptor (Homo sapiens, UniProt P18825); assay: Antagonism against the adrenoreceptor α2C (luminescence, recombinant CHO cell line); type: cell-based; conditions: antagonism against adrenoreceptor α2C; noradrenaline 20 nM; tested up to 10 μM; read-out: IC50
# T1 construct: expressed in transfected cells; host or cells: CHO cells, also recombinantly expressing chimeric G protein Gαqi3 and mitochondrial obelin (mtOb)
# T1 sequence (P18825 1-462): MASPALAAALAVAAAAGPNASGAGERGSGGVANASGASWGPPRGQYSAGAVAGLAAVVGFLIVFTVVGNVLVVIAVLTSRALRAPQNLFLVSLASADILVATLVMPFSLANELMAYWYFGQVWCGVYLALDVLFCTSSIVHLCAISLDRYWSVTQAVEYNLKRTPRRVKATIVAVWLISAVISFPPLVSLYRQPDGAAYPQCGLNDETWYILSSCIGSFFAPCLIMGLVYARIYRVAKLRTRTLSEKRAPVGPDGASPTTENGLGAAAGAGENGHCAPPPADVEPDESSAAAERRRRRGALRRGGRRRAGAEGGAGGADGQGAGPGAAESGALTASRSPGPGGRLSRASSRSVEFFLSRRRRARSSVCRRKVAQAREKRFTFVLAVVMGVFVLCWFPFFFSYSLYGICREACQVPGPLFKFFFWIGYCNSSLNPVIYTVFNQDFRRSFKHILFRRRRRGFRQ
# Outline: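 CHO cells expressing human α2C receptor with chimeric Gαqi3 and mitochondrial obelin, loaded with 2.5 μg/ml coelenterazine for one day at 30 °C.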
# adult female Wistar rats = assay: Radiotelemetric measurement of blood pressure and heart rate of conscious rats; type: in vivo, rat; conditions: 5 and 15 mg/kg, oral, telemetry over 24 hours
# Text: A commercially available telemetry system from Data Sciences International DSI, USA, was employed for the measurements on conscious rats described below. The system consists of 3 main components: (1) implantable transmitters (Physiotel® telemetry transmitter), (2) receivers (Physiotel® receiver), which are linked via a multiplexer (DSI Data Exchange Matrix) to a (3) data acquisition computer. The telemetry system makes it possible to continuously record blood pressure, heart rate and body motion of conscious animals in their usual habitat.
# The studies were conducted on adult female Wistar rats with a body weight of >200 g. After transmitter implantation, the experimental animals were housed singly in type III Makrolon® cages. They had free access to standard feed and water. The day/night rhythm in the test laboratory was set by changing the illumination of the room.
# The telemetry transmitters used (PA-C40, DSI) were surgically implanted under aseptic conditions in the experimental animals at least 14 days before the first experimental use.
# For the implantation, the fasted animals were anaesthetized with isoflurane (IsoFlo®, Abbott, initiation 5%, maintenance 2%) and shaved and disinfected over a large area of their abdomens. […]
# Each of the instrumented rats living in the system was assigned a separate receiving antenna (RPC-1 Receiver, DSI). […] The signals emitted were detected online by a data acquisition system (Dataquest™ A.R.T. for Windows, DSI) and processed accordingly.
# In the standard procedure, the following were measured for 10-second periods in each case: (1) systolic blood pressure (SBP), (2) diastolic blood pressure (DBP), (3) mean arterial pressure (MAP), (4) heart rate (HR) and (5) activity (ACT). These parameters were measured over 24 hours after administration.
# The acquisition of measurements was repeated under computer control at 5-minute intervals. The source data obtained as absolute values were corrected in the diagram with the currently measured barometric pressure (Ambient Pressure Reference Monitor, APR-1, DSI). […]
compound,measurement,setting,value
"CC1CCCN(C2CCN(C(=O)c3ccc(C(C)(C)O)cc3)CC2)C1 (single isomer, unassigned) [Example 8, [4-(1-Hydroxy-1-methylethyl)phenyl)](3-methyl-1,4′-bipiperidin-1′-yl)methanone, (−)-enantiomer]",IC50,human α2C receptor,163 nM
same,blood pressure,adult female Wistar rats,without any effect on blood pressure
same,heart rate,adult female Wistar rats,slight transient increase of the heart rate
